From patent US5135943A, “1H-imidazole derivative compounds and pharmaceutical compositions containing the same” (priority 1984, dated 1992)
Converted amounts (≈) assume the structure as drawn. Read-outs that look alike come from different tables or passages of the source.

How the values were obtained:
C. guillermondii = test: MIC, comparative in vitro testing against Martin compounds; format: cell-based
Method: (§1) Minimum Inhibitory Concentrations (MICS) of Sertaconazole were also measured in comparison to four of the compounds described in the Martin Patent, including a compound, referred to herein as Martin Compound 1, which has the same structure as Sertaconazole, expect that the sulfur in the benzothiophene ring is replaced by an oxygen.
(§2) The results of comparative in vitro testing of Sertaconazole and these four Martin compounds are shown in the following Table II against 16 microorganisms. The reading time is the time interval from the time of inoculation to the time of measurement.

C. krusei 24 = test: as above; format: cell-based
Method: as §1, §2

C. albicans 14 = test: as above; format: cell-based; settings: Casitone medium
Method: as §1, §2

C. parapsilosis 19 = test: as above; format: cell-based
Method: as §1, §2

C. tropicalis 25 = test: as above; format: cell-based; settings: YNB medium
Method: as §1, §2

C. albicans 15 = test: as above; format: cell-based; settings: Casitone medium
Method: as §1, §2

C. albicans 32 = test: as above; format: cell-based; settings: YNB medium
Method: as §1, §2

C. albicans 31 = test: as above; format: cell-based; settings: YNB medium
Method: as §1, §2

C. pseudotropicalis 21 = test: as above; format: cell-based; settings: Sabouraud medium
Method: as §1, §2

C. stellatoidea 36232 = test: as above; format: cell-based
Method: as §1, §2

C. albicans ATCC E-10231 = test: as above; format: cell-based; settings: Casitone medium
Method: as §1, §2

Candida albicans = test: MIC by two-fold dilution, Candida albicans; format: cell-based
From the text: A number of compounds with antimycotic and/or fungicidal properties, which are useful in pharmaceutical compositions, are currently known. These include the commercially successful Miconazole having the formula II [drawing 2] Miconazole has a structure chemically similar to the 1H-imidazole derivative compounds of the invention. Miconazole is effective against a number of yeasts, dermatophytes and fungi. This effectiveness can be measured by culturing these microorganisms in vitro and applying a preparation containing the antimycotic compound, Miconazole. The results of this type of in vitro experiment is expressed in terms of the Minimum Inhibitory Concentration (MIC), i.e. the minimum concentration which inhibits the growth of the microorganism. For example, the MIC for Miconazole against a particular Candida albicans strain is found to be 10.7 micrograms/milliliter. The effectiveness of Miconazole as an antimycotic compound is measured in vivo by applying a suspension containing the drug to the skin of a number of animals and measuring the proportion of animals on which growth of the microorganism is inhibited as a function of time. Typically, after 25 days, about 1/4 of the animals were cured, when treated with a cream containing 2 % by weight Miconazole. Of course, any pharmaceutical preparation for treating a disease in a human must satisfy certain toxicity requirements. […] Toxicity tests have been performed on the IH-imidazole derivative compounds of the invention and on Miconazole and other known compounds having antimycotic properties. In toxicity tests the LD50 (the dose at which 50 % mortality occurs) is measured.
(§3) Minimum Inhibitory Concentrations (MICS) of Sertaconazole and Miconazole against 107 yeasts, 47 dermatophytes and 4 fungi were determined by a two-fold dilution method.

Torulopsis glabrata = test: MIC by two-fold dilution, Torulopsis glabrata; format: cell-based; settings: Nakaseomyces glabratus; 10 strains; read-out: Minimum Inhibitory Concentration
Method: as §3

[1] = Comparison of acute toxicity of Sertaconazole and Miconazole (Table IV); format: in vivo
Method: Oral, intraperitoneal and subcutaneous acute toxicity of sertaconazole and miconazole have been investigated. LD50 in mouse and rat, male and female, were measured.

Trichophyton rubrus = test: MIC by two-fold dilution, Trichophyton rubrus; format: cell-based; settings: 10 strains, read-out: Minimum Inhibitory Concentration
Method: as §3

rats = test: Chronic toxicity in rats; format: in vivo, rat; settings: even at dosage levels of 300 mg/kg

Clc1ccc(C(Cn2ccnc2)OCc2csc3c(Cl)cccc23)c(Cl)c1 (centres unmarked) [Sertaconazole]
MIC (C. guillermondii; 48 h): 0.125 µg/mL (≈ 0.286 µM)
MIC (C. guillermondii; 48 h, Casitone medium, reading time 48 h, SZ vs M2, read-out: MIC): 0.25 µg/mL (≈ 0.571 µM)
MIC (C. guillermondii; 48 h, Casitone medium, reading time 48 h, SZ vs M3, read-out: MIC): 0.25 µg/mL (≈ 0.571 µM)
MIC (C. guillermondii; 48 h, Casitone medium, reading time 48 h, SZ vs M4, read-out: MIC): 0.25 µg/mL (≈ 0.571 µM)
MIC (C. guillermondii; 48 h, YNB medium, reading time 48 h, SZ vs M2, read-out: MIC): 0.25 µg/mL (≈ 0.571 µM)
MIC (C. guillermondii; 60 h, Casitone medium, reading time 60 h, SZ vs M1, read-out: MIC): 0.5 µg/mL (≈ 1.14 µM)
MIC (C. guillermondii; 60 h, YNB medium, reading time 60 h, SZ vs M1, read-out: MIC): 0.25 µg/mL (≈ 0.571 µM)
MIC (C. guillermondii; YNB medium, reading time 48 h, SZ vs M4): 0.125 µg/mL (≈ 0.286 µM)
MIC (C. krusei 24; Casitone medium, reading time 48 h, SZ vs M4): 0.125 µg/mL (≈ 0.286 µM)
MIC (C. krusei 24; Pichia kudriavzevii, 24, 48 h): 0.125 µg/mL (≈ 0.286 µM)
MIC (C. krusei 24; Pichia kudriavzevii, 24, 48 h, Casitone medium, reading time 48 h, SZ vs M2, read-out: MIC): 0.25 µg/mL (≈ 0.571 µM)
MIC (C. krusei 24; Pichia kudriavzevii, 24, 48 h, YNB medium, reading time 48 h, SZ vs M2, read-out: MIC): 0.25 µg/mL (≈ 0.571 µM)
MIC (C. krusei 24; Pichia kudriavzevii, 24, 48 h, YNB medium, reading time 48 h, SZ vs M3, read-out: MIC): 0.25 µg/mL (≈ 0.571 µM)
MIC (C. krusei 24; Pichia kudriavzevii, 24, 48 h, YNB medium, reading time 48 h, SZ vs M4, read-out: MIC): 0.25 µg/mL (≈ 0.571 µM)
MIC (C. krusei 24; Pichia kudriavzevii, 24, 60 h, Casitone medium, reading time 60 h, SZ vs M1, read-out: MIC): 1 µg/mL (≈ 2.28 µM)
MIC (C. krusei 24; Pichia kudriavzevii, 24, 60 h, YNB medium, reading time 60 h, SZ vs M1, read-out: MIC): 0.25 µg/mL (≈ 0.571 µM)
MIC (C. albicans 14; Candida albicans, 14, 48 h, reading time 48 h, SZ vs M2): 0.25 µg/mL (≈ 0.571 µM)
MIC (C. albicans 14; Candida albicans, 14, 48 h, reading time 48 h, SZ vs M3): 0.5 µg/mL (≈ 1.14 µM)
MIC (C. albicans 14; Candida albicans, 14, 48 h, reading time 48 h, SZ vs M4): 0.5 µg/mL (≈ 1.14 µM)
MIC (C. albicans 14; Candida albicans, 14, 60 h, reading time 60 h, SZ vs M1): 1 µg/mL (≈ 2.28 µM)
MIC (C. parapsilosis 19; 19, 48 h, Sabouraud medium, reading time 48 h, SZ vs M2): 0.25 µg/mL (≈ 0.571 µM)
MIC (C. parapsilosis 19; 19, 48 h, Sabouraud medium, reading time 48 h, SZ vs M3): 0.25 µg/mL (≈ 0.571 µM)
MIC (C. parapsilosis 19; 19, 48 h, Sabouraud medium, reading time 48 h, SZ vs M4): 0.25 µg/mL (≈ 0.571 µM)
MIC (C. parapsilosis 19; 19, 48 h, YNB medium, reading time 48 h, SZ vs M2): 0.25 µg/mL (≈ 0.571 µM)
MIC (C. parapsilosis 19; 19, 48 h, YNB medium, reading time 48 h, SZ vs M3): 0.5 µg/mL (≈ 1.14 µM)
MIC (C. parapsilosis 19; 19, 48 h, YNB medium, reading time 48 h, SZ vs M4): 0.5 µg/mL (≈ 1.14 µM)
MIC (C. parapsilosis 19; 19, 60 h, Sabouraud medium, reading time 60 h, SZ vs M1): 1 µg/mL (≈ 2.28 µM)
MIC (C. parapsilosis 19; 19, 60 h, YNB medium, reading time 60 h, SZ vs M1): 0.5 µg/mL (≈ 1.14 µM)
MIC (C. tropicalis 25; Candida tropicalis, 25, 48 h, reading time 48 h, SZ vs M2): 8 µg/mL (≈ 18.3 µM)
MIC (C. tropicalis 25; Candida tropicalis, 25, 48 h, reading time 48 h, SZ vs M3): 4 µg/mL (≈ 9.14 µM)
MIC (C. tropicalis 25; Candida tropicalis, 25, 48 h, reading time 48 h, SZ vs M4): 4 µg/mL (≈ 9.14 µM)
MIC (C. tropicalis 25; Candida tropicalis, 25, 60 h, reading time 60 h, SZ vs M1): 8 µg/mL (≈ 18.3 µM)
MIC (C. albicans 15; Candida albicans, 15, 48 h, reading time 48 h, SZ vs M2): 0.06 µg/mL (≈ 0.137 µM)
MIC (C. albicans 15; Candida albicans, 15, 48 h, reading time 48 h, SZ vs M3): 0.03 µg/mL (≈ 0.0685 µM)
MIC (C. albicans 15; Candida albicans, 15, 48 h, reading time 48 h, SZ vs M4): 0.03 µg/mL (≈ 0.0685 µM)
MIC (C. albicans 15; Candida albicans, 15, 60 h, reading time 60 h, SZ vs M1): 0.5 µg/mL (≈ 1.14 µM)
MIC (C. albicans 32; Candida albicans, 32, reading time 48 h, SZ vs M2, read-out: MIC): 4 µg/mL (≈ 9.14 µM)
MIC (C. albicans 32; Candida albicans, 32, reading time 60 h, SZ vs M1, read-out: MIC): 8 µg/mL (≈ 18.3 µM)
MIC (C. albicans 32; reading time 48 h, SZ vs M3): 4 µg/mL (≈ 9.14 µM)
MIC (C. albicans 32; reading time 48 h, SZ vs M4): 4 µg/mL (≈ 9.14 µM)
MIC (C. albicans 31; Candida albicans, 31, reading time 48 h, SZ vs M2, read-out: MIC): 4 µg/mL (≈ 9.14 µM)
MIC (C. albicans 31; Candida albicans, 31, reading time 60 h, SZ vs M1, read-out: MIC): 8 µg/mL (≈ 18.3 µM)
MIC (C. albicans 31; reading time 48 h, SZ vs M3): 4 µg/mL (≈ 9.14 µM)
MIC (C. albicans 31; reading time 48 h, SZ vs M4): 4 µg/mL (≈ 9.14 µM)
MIC (C. pseudotropicalis 21; Kluyveromyces marxianus, 21, reading time 48 h, SZ vs M2, read-out: MIC): 0.03 µg/mL (≈ 0.0685 µM)
MIC (C. pseudotropicalis 21; Kluyveromyces marxianus, 21, reading time 60 h, SZ vs M1, read-out: MIC): 0.03 µg/mL (≈ 0.0685 µM)
MIC (C. pseudotropicalis 21; reading time 48 h, SZ vs M3): 0.03 µg/mL (≈ 0.0685 µM)
MIC (C. pseudotropicalis 21; reading time 48 h, SZ vs M4): 0.03 µg/mL (≈ 0.0685 µM)
MIC (C. stellatoidea 36232; Candida albicans, 36232, 48 h, Casitone medium, reading time 48 h, SZ vs M2): 0.06 µg/mL (≈ 0.137 µM)
MIC (C. stellatoidea 36232; Candida albicans, 36232, 48 h, Casitone medium, reading time 48 h, SZ vs M3): 0.06 µg/mL (≈ 0.137 µM)
MIC (C. stellatoidea 36232; Candida albicans, 36232, 48 h, Casitone medium, reading time 48 h, SZ vs M4): 0.06 µg/mL (≈ 0.137 µM)
MIC (C. stellatoidea 36232; Candida albicans, 36232, 48 h, Sabouraud medium, reading time 48 h, SZ vs M2): 0.25 µg/mL (≈ 0.571 µM)
MIC (C. stellatoidea 36232; Candida albicans, 36232, 48 h, Sabouraud medium, reading time 48 h, SZ vs M3): 0.5 µg/mL (≈ 1.14 µM)
MIC (C. stellatoidea 36232; Candida albicans, 36232, 48 h, Sabouraud medium, reading time 48 h, SZ vs M4): 0.5 µg/mL (≈ 1.14 µM)
MIC (C. stellatoidea 36232; Candida albicans, 36232, 48 h, YNB medium, reading time 48 h, SZ vs M2): 1 µg/mL (≈ 2.28 µM)
MIC (C. stellatoidea 36232; Candida albicans, 36232, 48 h, YNB medium, reading time 48 h, SZ vs M3): 0.5 µg/mL (≈ 1.14 µM)
MIC (C. stellatoidea 36232; Candida albicans, 36232, 48 h, YNB medium, reading time 48 h, SZ vs M4): 0.5 µg/mL (≈ 1.14 µM)
MIC (C. stellatoidea 36232; Candida albicans, 36232, 60 h, Casitone medium, reading time 60 h, SZ vs M1): 0.25 µg/mL (≈ 0.571 µM)
MIC (C. stellatoidea 36232; Candida albicans, 36232, 60 h, Sabouraud medium, reading time 60 h, SZ vs M1): 1 µg/mL (≈ 2.28 µM)
MIC (C. stellatoidea 36232; Candida albicans, 36232, 60 h, YNB medium, reading time 60 h, SZ vs M1): 4 µg/mL (≈ 9.14 µM)
MIC (C. albicans ATCC E-10231; Candida albicans, ATCCE10231, reading time 48 h, SZ vs M2, read-out: MIC): 0.5 µg/mL (≈ 1.14 µM)
MIC (C. albicans ATCC E-10231; Candida albicans, ATCCE10231, reading time 60 h, SZ vs M1, read-out: MIC): 1 µg/mL (≈ 2.28 µM)
MIC (C. albicans ATCC E-10231; reading time 48 h, SZ vs M3): 0.5 µg/mL (≈ 1.14 µM)
MIC (C. albicans ATCC E-10231; reading time 48 h, SZ vs M4): 0.5 µg/mL (≈ 1.14 µM)
MIC (Candida albicans; Candida albicans, 52 strains, read-out: Minimum Inhibitory Concentration): 6 µg/mL (≈ 13.7 µM)
increase of activity in comparison to Miconazole (Candida albicans; in vitro): 43.9%
MIC (Torulopsis glabrata): 1.5 µg/mL (≈ 3.43 µM)
acute toxicity relative to Miconazole ([1]; oral and intraperitoneal routes): an order of magnitude less toxic
acute toxicity relative to Miconazole ([1]; subcutaneous): significantly less
MIC (Trichophyton rubrus): 0.4 µg/mL (≈ 0.914 µM)
mortality (rats): no mortality was observed
